≈ marks a conversion by molar mass, not a printed value.
Legend:
Assay in all cases: In vitro antibacterial evaluation: minimum inhibitory concentration (MIC), broth dilution method
Assay type in all cases: cell-based
[1] = system: Escherichia coli; details: Escherichia coli (GC 4560); 18 hours at 35° C.
Method: (§1) The minimum inhibitory concentration (MIC), the lowest concentration of the antibiotic which inhibits growth of the test organism, is determined by the broth dilution method using Muller-Hinton II […] (Baltimore Biological Laboratories) following the recommendations of the National Committee for Clinical Laboratory Standards [Methods for dilution antimicrobial susceptibility tests for bacteria that grow aerobically, approved standard M7-A2, National Committee for Clinical Laboratory Standards, Villanova, Pa].
(§2) An inoculum level of 5×10^5 CFU/mL, and a range of antibiotic concentrations (64-0.06 μg/mL) is used. […] The test organisms include a spectrum of Gram-positive bacteria comprised of Staphylococcus sp., Streptococcus sp. and Enterococcus sp. These organisms include recent clinical isolates that are resistant to methicillin, penicillin and/or vancomycin.

[2] = system: Staphylococcus sp.
Method: as §1, §2

[3] = system: Streptococcus sp.; details: 18 hours at 35° C.
Method: as §1, §2

[4] = system: Enterococcus sp.; details: 18 hours at 35° C.
Method: as §1, §2

[5] = broth dilution, inoculum 5×10^5 CFU/mL

CC(c1ccccc1)C1NC(=O)CNC(=O)C(CO)NC(=O)C(C(O)C2CN(Cc3ccc(C(F)(F)F)cc3)C(=N)N2C2OC(CO)C(O)C(O)C2O)NC(=O)C(C(O)C2CNC(=N)N2)NC(=O)C(Cc2ccc(OC3OC(CO)C(OC4OC5COC6(OC5C(O)C4O)C4CC5CC(C4)CC6C5)C(O)C3O)cc2)NC1=O (centres unmarked) [Example 226]
MIC Escherichia coli (GC 4560) [1]: 4 µg/mL (≈ 2.52 µM)
MIC Staphylococcus aureus (ATCC 29213) ([2]; strain ATCC 29213): 16 µg/mL (≈ 10.1 µM)
MIC Staphylococcus aureus (GC 1131) ([2]; strain GC 1131): 16 µg/mL (≈ 10.1 µM)
MIC Staphylococcus aureus (GC 3051) ([2]; strain GC 3051): 16 µg/mL (≈ 10.1 µM)
MIC Staphylococcus aureus (GC 3053) ([2]; strain GC 3053): 16 µg/mL (≈ 10.1 µM)
MIC Staphylococcus aureus (GC 4541) ([2]; strain GC 4541): 8 µg/mL (≈ 5.05 µM)
MIC Staphylococcus aureus (GC 4542) ([2]; strain GC 4542): 16 µg/mL (≈ 10.1 µM)
MIC Staphylococcus aureus-SMITH (GC 4543) ([2]; strain GC 4543): 8 µg/mL (≈ 5.05 µM)
MIC Staphylococcus aureus (GC 4544) ([2]; strain GC 4544): 16 µg/mL (≈ 10.1 µM)
MIC Staphylococcus aureus (GC 4545) ([2]; strain GC 4545): 16 µg/mL (≈ 10.1 µM)
MIC Staphylococcus haemolyticus (GC 4546) ([2]; strain GC 4546): 8 µg/mL (≈ 5.05 µM)
MIC Coagulase Negative Staphylococcus (GC 4547) ([2]; strain GC 4547): 8 µg/mL (≈ 5.05 µM)
MIC Coagulase Negative Staphylococcus (GC 4548) ([2]; strain GC 4548): 8 µg/mL (≈ 5.05 µM)
MIC Coagulase Negative Staphylococcus (GC 4549) ([2]; strain GC 4549): 16 µg/mL (≈ 10.1 µM)
MIC Coagulase Negative Staphylococcus (GC 4551) ([2]; strain GC 4551): 8 µg/mL (≈ 5.05 µM)
MIC Coagulase Negative Staphylococcus (GC 6257) ([2]; strain GC 6257): 2 µg/mL (≈ 1.26 µM)
MIC Streptococcus agalactiae (GC 4564) ([3]; Streptococcus agalactiae (GC 4564)): 4 µg/mL (≈ 2.52 µM)
MIC Streptococcus pneumoniae (ATCC 6301) ([3]; Streptococcus pneumoniae (ATCC 6301)): 4 µg/mL (≈ 2.52 µM)
MIC Streptococcus pneumoniae (GC 1894) ([3]; Streptococcus pneumoniae (GC 1894)): 0.5 µg/mL (≈ 0.315 µM)
MIC Streptococcus pneumoniae (GC 4565) ([3]; Streptococcus pneumoniae (GC 4565)): 4 µg/mL (≈ 2.52 µM)
MIC Streptococcus pyogenes (GC 4563) ([3]; Streptococcus pyogenes (GC 4563)): 2 µg/mL (≈ 1.26 µM)
MIC Streptococcus agalactiae (GC 4564) [3, 5]: 4 µg/mL (≈ 2.52 µM)
MIC Streptococcus pneumoniae (ATCC 6301) [3, 5]: 4 µg/mL (≈ 2.52 µM)
MIC Streptococcus pneumoniae (GC 1894) [3, 5]: 0.5 µg/mL (≈ 0.315 µM)
MIC Streptococcus pneumoniae (GC 4565) [3, 5]: 4 µg/mL (≈ 2.52 µM)
MIC Streptococcus pyogenes (GC 4563) [3, 5]: 2 µg/mL (≈ 1.26 µM)
MIC Enterococcus avium (GC 4558) ([4]; Enterococcus avium (GC 4558)): 8 µg/mL (≈ 5.05 µM)
MIC Enterococcus faecalis (ATCC 29212) ([4]; Enterococcus faecalis (ATCC 29212)): 32 µg/mL (≈ 20.2 µM)
MIC Enterococcus faecalis (GC 2242) ([4]; Enterococcus faecalis (GC 2242)): 16 µg/mL (≈ 10.1 µM)
MIC Enterococcus faecalis (GC 2691) ([4]; Enterococcus faecalis (GC 2691)): 32 µg/mL (≈ 20.2 µM)
MIC Enterococcus faecalis (GC 3059) ([4]; Enterococcus faecalis (GC 3059)): 32 µg/mL (≈ 20.2 µM)
MIC Enterococcus faecalis (GC 4552) ([4]; Enterococcus faecalis (GC 4552)): 32 µg/mL (≈ 20.2 µM)
MIC Enterococcus faecalis (GC 4553) ([4]; Enterococcus faecalis (GC 4553)): 16 µg/mL (≈ 10.1 µM)
MIC Enterococcus faecalis (GC 4554) ([4]; Enterococcus faecalis (GC 4554)): 32 µg/mL (≈ 20.2 µM)
MIC Enterococcus faecalis (GC 6189) ([4]; Enterococcus faecalis (GC 6189)): 32 µg/mL (≈ 20.2 µM)
MIC Enterococcus faecium (GC 2243) ([4]; Enterococcus faecium (GC 2243)): 16 µg/mL (≈ 10.1 µM)
MIC Enterococcus faecium (GC 4556) ([4]; Enterococcus faecium (GC 4556)): 32 µg/mL (≈ 20.2 µM)
MIC Enterococcus faecium (GC 4557) ([4]; Enterococcus faecium (GC 4557)): 2 µg/mL (≈ 1.26 µM)
MIC Enterococcus avium (GC 4558) [4, 5]: 8 µg/mL (≈ 5.05 µM)
MIC Enterococcus faecalis (ATCC 29212) [4, 5]: 32 µg/mL (≈ 20.2 µM)
MIC Enterococcus faecalis (GC 2242) [4, 5]: 16 µg/mL (≈ 10.1 µM)
MIC Enterococcus faecalis (GC 2691) [4, 5]: 32 µg/mL (≈ 20.2 µM)
MIC Enterococcus faecalis (GC 3059) [4, 5]: 32 µg/mL (≈ 20.2 µM)
MIC Enterococcus faecalis (GC 4552) [4, 5]: 32 µg/mL (≈ 20.2 µM)
MIC Enterococcus faecalis (GC 4553) [4, 5]: 16 µg/mL (≈ 10.1 µM)
MIC Enterococcus faecalis (GC 4554) [4, 5]: 32 µg/mL (≈ 20.2 µM)
MIC Enterococcus faecalis (GC 6189) [4, 5]: 32 µg/mL (≈ 20.2 µM)
MIC Enterococcus faecium (GC 2243) [4, 5]: 16 µg/mL (≈ 10.1 µM)
MIC Enterococcus faecium (GC 4556) [4, 5]: 32 µg/mL (≈ 20.2 µM)
MIC Enterococcus faecium (GC 4557) [4, 5]: 2 µg/mL (≈ 1.26 µM)

Reference: US8247211B2, “Glycopeptide antibiotics” (American Cyanamid Company, priority 2001, dated 2012)
